Assay results as given in US20260374766A1, “METHODS FOR TREATING CANCER” (Antares Therapeutics, Inc., priority 2022, published 2026).
Structures can show the parent of a compound that is named as a salt.

What was measured:
[1] = molecular target: p53 Y220C (Homo sapiens, UniProt P04637, Y220C); assay: Luciferase Reporter Assay (Luc), p53 response element, NClH1299 cells with inducible p53 Y220C; format: cell-based; details: luciferase reporter, NClH1299 inducible p53 Y220C, 6 hour; for Emax: 10 uM tool compound as positive control; for AC50: read-out: Luc P53 Y220C AC50
Summary of the method: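 Steps: seed 5,000 cells/well; induce mutant p53 with 0.5 ug/mL doxycycline for 24 h; treat with compound 6 h; add equal volume One-Glo, shake 5 min at room temperature; measure luciferase immediately.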

[2] = molecular target: T1, p53 Y220C mutant protein (amino acid residues 94-293) (Homo sapiens, UniProt P04637, Y220C); assay: Thermal Shift Assay (TSA), dTM; format: binding; details: thermal shift; for ΔTm at 100 µM: 100 uM compound, read-out: TSA P53 Y220C dTM (100 uM)
T1 construct: p53 Y220C mutant protein (amino acid residues 94-293)
Description: Thermal Shift Assay (TSA) Protocol
5 μM recombinant p53 Y220C mutant protein (amino acid residues 94-293) was incubated with 10 μM or 100 μM compound for 3 hours at 20 °C in buffer containing 20 mM HEPES, pH7.4, 100 mM NaCl, 0.01% Pluronic F-127, and 1% DMSO in the presence of 400-fold diluted Sypro Orange (ThermoFisher Scientific catalog number 4461146), on a 384-well PCR plate (Applied Biosystems catalog number 4483285). The volume was 5 μL/well. The sealed plate was then loaded onto a QuantStudio 7 Flex instrument for melting temperature (TM) measurement. The temperature was increased from 30 °C to […], at a rate of 0.03 °C/second. Data were fit into a Boltzmann two-state model to determine the TM.

[3] = system: H1299 p53 R273H; assay: Cell Proliferation Assay (CellTiter-Glo, CTG), H1299 p53 R273H (NClH1299-inducible p53 R273H); format: cell-based; details: Homo sapiens, NCI-H1299, 120 h, CellTiter-Glo, H1299 p53 R273H, 5 days
Summary of the method: (§1)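 Cells seeded at 250-500 per well and exposed to compound for 5 days. Viability read by CellTiter-Glo luminescence after 10 min at room temperature; IC50 calculated. H1299 lines carry Tet-One inducible p53 mutant constructs introduced by lentiviral transduction.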

[4] = system: H1299 p53 Y220C; assay: Cell Proliferation Assay (CellTiter-Glo, CTG), H1299 p53 Y220C (NClH1299-inducible p53 Y220C); format: cell-based; details: Homo sapiens, NCI-H1299, 120 h, CellTiter-Glo, H1299 p53 Y220C, 5 days
Summary of the method: as §1

[5] = system: NUGC3 p53 Y220C; assay: Cell Proliferation Assay (CellTiter-Glo, CTG), NUGC3 p53 Y220C; format: cell-based; details: Homo sapiens, NUGC-3, 120 h, CellTiter-Glo, NUGC3 p53 Y220C, 5 days
Summary of the method: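 Tet-One inducible p53 Y220C or R273H constructs were stably introduced into NCI-H1299 by lentiviral transduction; NUGC3 was used as is. Cells (250-500 per well) were exposed to compound for 5 days, then CellTiter-Glo was added for 10 min at room temperature and IC50 was calculated from luminescence.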

[6] = molecular target: T1, p53 Y220C mutant protein (amino acid residues 94-293); assay: Surface Plasmon Resonance (SPR) assay, Kd_kinetic; format: binding; details: SPR, kinetic KD, p53 Y220C; read-out: SPR P53 Y220C KD kinetic
Summary of the method: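 Surface plasmon resonance is run at 16 or 20 °C in 50 mM Tris pH 7.5 containing 100 mM NaCl, 1 mM DTT, 0.01% Brij35, 0.05% Tween-20 and 1% DMSO. Association and dissociation data are fitted to a 1:1 model.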

Compound | Emax [1] | AC50 [1] | ΔTm at 10 µM ([2]; 10 uM compound, read-out: TSA P53 Y220C dTM (10 uM)) | ΔTm at 100 µM [2] | IC50 [3] | IC50 [4] | IC50 [5] | Kd [6]
CCNC(=O)c1ccc(OC)c(NCC#Cc2nc3c(N[C@@H]4CCN(C)C[C@@H]4F)cccn3c2SC(F)(F)F)c1 [Example 108, N-ethyl-3-{[3-(8-{[(3S,4R)-3-fluoro-1-methylpiperidin-4-yl]amino}-3-[(trifluoromethyl)sulfanyl]imidazo[1,2-a]pyridin-2-yl)prop-2-yn-1-yl]amino}-4-methoxybenzamide] | 80 to 90% | < 750 nM | ≥ 10 °C | ≥ 10 °C | 8000 to 10000 nM | < 750 nM | < 750 nM | < 10 nM
CNC(=O)c1ccc(NCC#Cc2nc3c(N[C@@H]4CCN(C)C[C@@H]4F)cccn3c2C2CC2)c(OC)c1 [Example 29, 4-{[3-(3-cyclopropyl-8-{[(3S,4R)-3-fluoro-1-methylpiperidin-4-yl]amino}imidazo[1,2-a]pyridin-2-yl)prop-2-yn-1-yl]amino}-3-methoxy-N-methylbenzamide] | < 70% | > 3000 nM |  | 5 to 10 °C | ≥ 10000 nM | > 3000 nM | > 3000 nM | 100 to 1000 nM
CNC(=O)c1ccc(NCC#Cc2nc3c(NC4CCN(C)CC4)cc(NC(=O)C(F)Cl)cn3c2CC(F)(F)F)c(OC)c1 (stereo not drawn) [Example 43, 4-((3-[6-(2-chloro-2-fluoroacetamido)-8-[(1-methylpiperidin-4-yl)amino]-3-(2,2,2-trifluoroethyl)imidazo[1,2-a]pyridin-2-yl]prop-2-yn-1-ylamino)-3-methoxy-N-methylbenzamide, formic acid salt] | < 70% | > 3000 nM |  | 1 to 5 °C | ≥ 10000 nM | > 3000 nM | > 3000 nM | 
COc1cc(S(C)(=O)=O)ccc1NCC#Cc1nc2c(NC3CCN(C)CC3)cc(O)cn2c1CC(F)(F)F [Example 27, 2-{3-[(4-methanesulfonyl-2-methoxyphenyl)amino]prop-1-yn-1-yl}-8-[(1-methylpiperidin-4-yl)amino]-3-(2,2,2-trifluoroethyl)imidazo[1,2-a]pyridin-6-ol, TFA salt] | < 70% | > 3000 nM |  | 5 to 10 °C | ≥ 10000 nM | > 3000 nM | > 3000 nM | 
CNC(=O)c1ccc(NCC#Cc2nc3c(N[C@@H]4CCN(C)C[C@@H]4F)cc(F)cn3c2CC(F)(F)F)c(OC)c1 [Example 99, 4-{[3-(6-fluoro-8-{[(3S,4R)-3-fluoro-1-methylpiperidin-4-yl]amino}-3-(2,2,2-trifluoroethyl)imidazo[1,2-a]pyridin-2-yl)prop-2-yn-1-yl]amino}-3-methoxy-N-methylbenzamide, formic acid salt] | 80 to 90% | 750 to 1500 nM |  | ≥ 10 °C | 5000 to 8000 nM | 750 to 1500 nM | 750 to 1500 nM | 
COc1cc(S(C)(=O)=O)ccc1NCC#Cc1nc2c(NC3CCN(C(C)=O)CC3)cccn2c1CC(F)(F)F [Example 10, 1-{4-[(2-{3-[(4-methanesulfonyl-2-methoxyphenyl)amino]prop-1-yn-1-yl}-3-(2,2,2-trifluoroethyl)imidazo[1,2-a]pyridin-8-yl)amino]piperidin-1-yl}ethanone] | 80 to 90% | > 3000 nM |  | 5 to 10 °C | ≥ 10000 nM | 1500 to 3000 nM | > 3000 nM | 
CNC(=O)c1ccc(NCC#Cc2nc3c(NC4CCN(C)CC4)cc(NC(=O)OC)cn3c2CC(F)(F)F)c(OC)c1 [Example 45, methyl N-[2-(3-{[2-methoxy-4-(methylcarbamoyl)phenyl]amino}prop-1-yn-1-yl)-8-[(1-methylpiperidin-4-yl)amino]-3-(2,2,2-trifluoroethyl)imidazo[1,2-a]pyridin-6-yl]carbamate] | < 70% | > 3000 nM |  | 1 to 5 °C | ≥ 10000 nM | > 3000 nM | > 3000 nM | 
